The text below walks through data of ChEMBL document CHEMBL4330114 (Bioorg Med Chem, 2019).

≈ marks a conversion by molar mass, not a printed value.

In series [1] the test system is Human immunodeficiency virus 1. Put plainly: Antiviral activity against wild type HIV1 3B infected in human MT4 cells assessed as inhibition of virus-induced cytopathic effect after 5 days by MTT assay. Format: functional, organism-based. The following applies: Human immunodeficiency virus 1, 3B, MT4, 120 h. (In general: Protection from cytopathic effect is a common read-out in antiviral testing.)

Series [2] relates to Human immunodeficiency virus 1. Put plainly: Antiviral activity against HIV1 RES056 containing reverse transcriptase K103N + Y181C mutant infected in human MT4 cells assessed as inhibition of virus-induced cytopathic effect after 5 days by MTT assay. The class given is functional, organism-based. The following applies: Human immunodeficiency virus 1, RES056, MT4, 120 h.
Series [3] is described as follows: Cytotoxicity against mock-infected human MT4 cells assessed as reduction in cell viability after 5 days by MTT assay. Format: cell-based. On the technique in general: Tetrazolium dyes change colour on reduction, which living cells bring about.
Series [4] is described as follows: Selectivity index, ratio of CC50 for mock-infected human MT4 cells to EC50 for wild type HIV1 3B infected in human MT4 cells. The class given is toxicity, cell-based. The following applies: read-out: Selectivity Index.
Series [5] is described as follows: Selectivity index, ratio of CC50 for mock-infected human MT4 cells to EC50 for HIV1 RES056 RES056 containing reverse transcriptase K103N + Y181C mutant infected in human MT4 cells. Format: toxicity, cell-based. As to conditions: read-out: Selectivity Index.
Series [6] can be described thus: Selectivity index, ratio of CC50 for mock-infected human MT4 cells to EC50 for HIV2 ROD infected in human MT4 cells. As to conditions: read-out: Selectivity Index. Format: toxicity, cell-based.
In series [7] the target is Human immunodeficiency virus type 1 reverse transcriptase (Human immunodeficiency virus 1, UniProt Q72547). As to the kind of experiment: Inhibition of recombinant wild type HIV1 reverse transcriptase assessed as reduction in biotin-dUTP incorporation using poly(A)/oligo(dT)15 as template/primer after 1 hr by ELISA. (In general: An ELISA detects its analyte on a solid surface through an enzyme-linked reagent.)

In series [8] the test system is Human immunodeficiency virus 2. As to the kind of experiment: Antiviral activity against HIV2 ROD infected in human MT4 cells assessed as inhibition of virus-induced cytopathic effect after 5 days by MTT assay. As to conditions: Human immunodeficiency virus 2, ISOLATE ROD, MT4, 120 h.
Series [9] relates to Human immunodeficiency virus 1. Put plainly: Potency index, ratio of lamivudine EC50 to compound EC50 for antiviral activity against wild type HIV1 3B infected in human MT4 cells. Format: functional.
The nature of series [10]: Solubility of the compound. Format: physicochemical.
The nature of series [11]: Aqueous solubility of the compound in water at pH 7.0 after overnight incubation by HPLC-UV analysis. The class given is physicochemical.
The nature of series [12]: Aqueous solubility of the compound in phosphate buffer of pH 7.4 after overnight incubation by HPLC-UV analysis. The class given is physicochemical.
Series [13] can be described thus: Aqueous solubility of the compound at phosphate buffer of pH 2.0 after overnight incubation by HPLC-UV analysis. Format: physicochemical.
A short description of series [14]: Half life of the compound in phosphate buffer of pH 2.0 by HPLC-UV analysis. The class given is physicochemical.
Series [15] is described as follows: Half life of the compound in phosphate buffer of pH 7.4 by HPLC-UV analysis. The class given is physicochemical.

For orientation: EC50 means the concentration needed to bring the measured effect to its halfway point. Broadly, the CC50 is the concentration giving 50% cytotoxicity. As usually defined, the IC50 is the concentration that gives 50% inhibition. As for `N#Cc1cc(Cl)cc(Oc2c(C(F)(F)F)ccn(CC(=O)Nc3cnccn3)c2=O)c1`, the EC50 in [1] was 29.4 µM; in series [2], above 183 µM; in series [8] it was above 183 µM. The CC50 at 120 h in series [3] is at least 183 µM. Moreover, the selectivity ratio was at least 6 in series [4], 1 in series [5] and 1 in [6]. In addition, in [7], the IC50 is 63.4 µM.

With `N#Cc1cc(Cl)cc(Oc2c(C(F)(F)F)ccn(CC(=O)Nc3cccnc3)c2=O)c1`, the EC50 in series [1], in [2] and in [8] was above 111 µM in each case. Also, the CC50 at 120 h in [3] turned out to be 111 µM. In addition, the selectivity ratio in series [4], in series [5] and in series [6] was below 1 throughout. Besides, the IC50 in [7] was found to be 133 µM.

Turning to `N#Cc1cc(Cl)cc(Oc2c(C(F)(F)F)ccn(CC(=O)Nc3ccncc3)c2=O)c1`, the EC50 in [1] was 32.4 µM; in series [2], above 133 µM; in series [8], above 133 µM. Further, the 50% cytotoxic concentration (CC50) at 120 h in series [3] was determined as 133 µM. For the same compound, the selectivity ratio in series [4] was 4; in series [5] it was below 1; in [6], below 1. Moreover, the IC50 in series [7] was determined as 32.5 µM.

With `N#Cc1cc(Cl)cc(Oc2c(C(F)(F)F)ccn(CC(=O)Nc3ccc(Br)cc3)c2=O)c1`, the EC50 in series [1], in series [2] and in [8] was above 87.9 µM in each case. The CC50 at 120 h in [3] is 87.9 µM. The selectivity ratio in series [4], in series [5] and in [6] was below 1 in each case. Moreover, the IC50 in [7] was 92.5 µM.

Take `N#Cc1cc(Cl)cc(Oc2c(C(F)(F)F)ccn(CC(=O)Nc3ncn[nH]3)c2=O)c1`: the EC50 in [1] was 0.0548 µM; in [2], 0.196 µM; in series [8] it was 182 µM. The CC50 at 120 h in series [3] is above 285 µM. For the same compound, the selectivity ratio in series [4] was above 5200; in series [5] it was above 1450; in series [6], above 2. For the same compound, in [7], the IC50 amounted to 0.522 µM. Also, the “Ratio EC50” value in series [9] is given as 234.

For `N#Cc1cc(Cl)cc(Oc2c(C(F)(F)F)ccn(CC(=O)Nc3ccc([N+](=O)[O-])cc3)c2=O)c1`, the values for the EC50 in series [1], in [2] and in [8] were 1.4 µM, above 254 µM and 145 µM, respectively. For the same compound, in series [3], the CC50 at 120 h is above 254 µM. Besides, the selectivity ratio in series [4] was above 181; in series [5], 1; in series [6], above 2. For the same compound, the IC50 in [7] worked out at 1.27 µM.

As usually defined, the solubility is the dissolved amount per volume that the medium holds. A high value points to a readily soluble substance. For `Cc1cc(C#N)cc(C)c1Oc1nc(Nc2ccc(C#N)cc2)nc(N)c1Br` [ETRAVIRINE], in series [10], the solubility was below 1 µg/mL.

Regarding `CS(=O)(=O)c1ccc(NC(=O)Cn2ccc(C(F)(F)F)c(Oc3cc(Cl)cc(C#N)c3)c2=O)cc1`, the EC50 was 42.1 µM in series [1], above 112 µM in [2] and above 112 µM in series [8]. Further, the CC50 at 120 h in series [3] worked out at 112 µM. Also, the selectivity ratio in series [4] is 3; in [5], below 1; in series [6], below 1. The IC50 in series [7] was found to be 1 µM.

Take `N#Cc1cc(Cl)cc(Oc2c(C(F)(F)F)ccn(CC(=O)Nc3cn[nH]c3)c2=O)c1`: the EC50 was 0.0595 µM in [1], 0.343 µM in series [2] and at least 33.4 µM in [8]. Moreover, in series [3], the CC50 at 120 h stood at 46.1 µM. Also, the selectivity ratio is 775 in series [4], 134 in [5] and at most 1 in [6]. Also, the concentration for half-maximal inhibition (IC50) in series [7] came to 1.25 µM.

Take `O=C1Nc2ccc(Cl)cc2[C@@](C#CC2CC2)(C(F)(F)F)O1` [EFAVIRENZ]: the EC50 in series [1] is 0.007 µM; in series [2] it was 0.244 µM. In [3], the CC50 at 120 h is above 3.16 µM.

Regarding `N#Cc1cc(Cl)cc(Oc2c(C(F)(F)F)ccn(CC(=O)Nc3ccc(F)cc3)c2=O)c1`, the EC50 was 188 µM in series [1], above 269 µM in [2] and above 269 µM in series [8]. Besides, the CC50 at 120 h in series [3] is above 269 µM. For the same compound, the selectivity ratio in series [4] is above 1; in [5], 1; in [6], 1. Besides, the IC50 in series [7] was determined as 72 µM.

Take `N#Cc1cc(Cl)cc(Oc2c(C(F)(F)F)ccn(CC(=O)Nc3ccc(C(F)(F)F)cc3)c2=O)c1`: the EC50 is 12.3 µM in [1], above 82.3 µM in [2] and above 82.3 µM in [8]. Also, the CC50 at 120 h in series [3] was 82.3 µM. Also, the figures for the selectivity ratio in series [4], in series [5] and in series [6] were 7, below 1 and below 1, respectively. In series [7], the IC50 was 30.1 µM.

Regarding `CC(C)OC(=O)OCn1nc(Cn2ccc(C(F)(F)F)c(Oc3cc(Cl)cc(C#N)c3)c2=O)n(C)c1=O`, the values for the EC50 in series [1], in [2] and in series [8] were 1.22 µM, above 231 µM and 152 µM, respectively. Further, the CC50 at 120 h in series [3] was above 231 µM. Moreover, the selectivity ratio in series [4] was above 189; in series [5] it was 1; in series [6] it was above 2. Besides, the IC50 in series [7] worked out at 2.11 µM. The solubility in series [11] turned out to be 27 µg/mL (≈ 49.8 µM); in series [12], 29 µg/mL (≈ 53.5 µM); in [13] it was 14 µg/mL (≈ 25.8 µM).

As a reminder, the half-life is the time needed for the level to fall by half in the phase considered. Low readings indicate rapid decline, high ones slow decline. With `Cn1c(Cn2ccc(C(F)(F)F)c(Oc3cc(Cl)cc(C#N)c3)c2=O)nn(COP(=O)(O)O)c1=O`, the EC50 in [1] is 0.262 µM; in series [2], above 234 µM; in series [8], above 234 µM. Also, in series [3], the CC50 at 120 h was above 234 µM. For the same compound, the selectivity ratio in [4] was above 893; in series [5] it was 1; in [6], 1. Further, the IC50 in series [7] came out at 0.93 µM. Moreover, the solubility in [11] is 4560 µg/mL (≈ 8510 µM); in series [12], 5190 µg/mL (≈ 9680 µM); in series [13], 4220 µg/mL (≈ 7870 µM). Further, the half-life in series [14] and in series [15] was above 24 h throughout.

For `Nc1ccn([C@@H]2CS[C@H](CO)O2)c(=O)n1` [LAMIVUDINE], the values for the concentration giving a half-maximal response (EC50) in series [1], in series [2] and in series [8] were 12.8 µM, 7.77 µM and at least 17.1 µM, respectively. Moreover, the CC50 at 120 h in [3] is above 87.3 µM. Further, the selectivity ratio in [4] is above 7; in series [5], above 11.

Turning to `N#Cc1cc(Cl)cc(Oc2c(C(F)(F)F)ccn(CC(=O)Nc3ccn[nH]3)c2=O)c1`, the EC50 in [1] is 6.34 µM; in series [2], above 41.9 µM; in series [8], 134 µM. The CC50 at 120 h in [3] was at least 41.9 µM. In addition, the selectivity ratio in [4] is at least 7; in series [5] it was 1; in series [6] it was 1. In addition, the IC50 in series [7] was 19.4 µM.

As to `Cn1c(Cn2ccc(C(F)(F)F)c(Oc3cc(Cl)cc(C#N)c3)c2=O)n[nH]c1=O` [DORAVIRINE], the EC50 in series [1] stood at 0.013 µM; in series [2] it was 0.015 µM; in [8], 142 µM. Moreover, the CC50 at 120 h in series [3] is above 294 µM. Further, in series [7], the IC50 was found to be 0.019 µM.
